{"source": "PubChem BioAssay AID330", "about": "(DTP/NCI, 2004)", "system": "P388 leukemia ip, CD2F1 mice, survival T/C", "assay": "NCI In Vivo Anticancer Drug Screen. Data for tumor model P388 Leukemia (intraperitoneal) in CD2F1 (CDF1) mice", "details": "endpoint: median survival time, higher = longer survival", "procedure,_shortened": "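Mice carrying the transplanted tumor received test compound or vehicle. Survival was recorded in each group, and the value is the treated-group measurement divided by that of the vehicle-treated control group.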", "key": {"[1]": {"details": "dose: 60.0 mg/kg/injection, schedule: Q01DX005 (ip), vehicle: saline with Tween-80"}, "[2]": {"details": "dose: 120.0 mg/kg/injection, schedule: Q01DX005 (ip), vehicle: saline with Tween-80"}}, "note": "Values joined by “and” are separate entries in the source; they are usually repeats but may differ in a detail not shown here. Equal entries are not always repeated. Toxic doses and inconclusive results are not listed.", "data": [{"smiles": "N#CCc1nc2ccccc2s1", "values": [{"measurement": "T/C", "setting": "dose: 30.0 mg/kg/injection, schedule: Q01DX005 (ip), vehicle: saline with Tween-80", "result": "102 % of control"}, {"measurement": "T/C", "setting": "[1]", "result": "107 % of control"}, {"measurement": "T/C", "setting": "[2]", "result": "102 % of control"}]}, {"smiles": "CCCCOC(=O)CCC(C)=O", "values": [{"measurement": "T/C", "setting": "dose: 100.0 mg/kg/injection, schedule: Q04DX003 (ip), vehicle: saline with Tween-80", "result": "100 % of control"}, {"measurement": "T/C", "setting": "dose: 200.0 mg/kg/injection, schedule: Q04DX003 (ip), vehicle: saline with Tween-80", "result": "100 % of control"}, {"measurement": "T/C", "setting": "dose: 400.0 mg/kg/injection, schedule: Q04DX003 (ip), vehicle: saline with Tween-80", "result": "104 % of control"}]}, {"smiles": "CCOC(=O)N1CCc2cc(OC)c(OC)cc2/C1=C/c1cc(OC)c(OC)cc1Br", "values": [{"measurement": "T/C", "setting": "dose: 12.5 mg/kg/injection, schedule: Q01DX009 (ip), vehicle: other", "result": "94 % of control"}, {"measurement": "T/C", "setting": "dose: 25.0 mg/kg/injection, schedule: Q01DX009 (ip), vehicle: other", "result": "96 % of control"}, {"measurement": "T/C", "setting": "dose: 50.0 mg/kg/injection, schedule: Q01DX009 (ip), vehicle: other", "result": "96 % of control"}, {"measurement": "T/C", "setting": "dose: 100.0 mg/kg/injection, schedule: Q01DX009 (ip), vehicle: other", "result": "93 % of control"}, {"measurement": "T/C", "setting": "dose: 200.0 mg/kg/injection, schedule: Q01DX009 (ip), vehicle: other", "result": "93 % of control"}]}, {"smiles": "C[C@H](CCC(=O)O)[C@H]1CC[C@H]2[C@@H]3[C@H](O)C[C@@H]4C[C@H](O)CC[C@]4(C)[C@H]3C[C@H](O)[C@]12C", "note": "(tested in a mixture with another compound)", "values": [{"measurement": "T/C", "setting": "dose: 75.0 mg/kg/injection, schedule: Q01DX009 (ip), vehicle: saline sonified", "result": "104 % of control"}, {"measurement": "T/C", "setting": "dose: 300.0 mg/kg/injection, schedule: Q01DX009 (ip), vehicle: saline sonified", "result": "163 % of control"}]}, {"smiles": "NNC(=O)C(N)Cc1ccc(O)cc1", "note": "(stereo unspecified)", "values": [{"measurement": "T/C", "setting": "dose: 50.0 mg/kg/injection, schedule: Q01DX005 (ip), vehicle: saline", "result": "100 % of control"}, {"measurement": "T/C", "setting": "dose: 100.0 mg/kg/injection, schedule: Q01DX005 (ip), vehicle: saline", "result": "103 % of control"}, {"measurement": "T/C", "setting": "dose: 200.0 mg/kg/injection, schedule: Q01DX005 (ip), vehicle: saline", "result": "115 % of control"}]}, {"smiles": "CC(=O)c1ccc[n+](CCc2c[nH]c3ccccc23)c1", "values": [{"measurement": "T/C", "setting": "dose: 12.5 mg/kg/injection, schedule: Q01DX009 (ip), vehicle: saline with Tween-80", "result": "104 % of control"}, {"measurement": "T/C", "setting": "dose: 25.0 mg/kg/injection, schedule: Q01DX009 (ip), vehicle: saline with Tween-80", "result": "113 % of control"}, {"measurement": "T/C", "setting": "dose: 50.0 mg/kg/injection, schedule: Q01DX009 (ip), vehicle: saline with Tween-80", "result": "109 % of control"}]}, {"smiles": "Cc1ccc2c(c1)S(=O)(=O)NC2=O", "values": [{"measurement": "T/C", "setting": "[1]", "result": "95 % of control"}, {"measurement": "T/C", "setting": "[2]", "result": "92 % of control"}, {"measurement": "T/C", "setting": "dose: 240.0 mg/kg/injection, schedule: Q01DX005 (ip), vehicle: saline with Tween-80", "result": "95 % of control"}]}, {"smiles": "COc1ccccc1P(=S)(c1ccccc1)c1ccccc1", "values": [{"measurement": "T/C", "setting": "dose: 50.0 mg/kg/injection, schedule: Q01DX005 (ip), vehicle: Klucel (hydroxypropylcellulose) (HPC)", "result": "99 % of control"}, {"measurement": "T/C", "setting": "dose: 100.0 mg/kg/injection, schedule: Q01DX005 (ip), vehicle: Klucel (hydroxypropylcellulose) (HPC)", "result": "99 % of control"}, {"measurement": "T/C", "setting": "dose: 200.0 mg/kg/injection, schedule: Q01DX005 (ip), vehicle: Klucel (hydroxypropylcellulose) (HPC)", "result": "96 % of control"}]}, {"smiles": "Nc1nc(SCC(=O)O)[nH]c(=O)c1NS(=O)(=O)c1ccccc1[N+](=O)[O-]", "values": [{"measurement": "T/C", "setting": "dose: 60.0 mg/kg/injection, schedule: Q01DX005 (ip), vehicle: Klucel (hydroxypropylcellulose) (HPC)", "result": "90 % of control"}, {"measurement": "T/C", "setting": "dose: 120.0 mg/kg/injection, schedule: Q01DX005 (ip), vehicle: Klucel (hydroxypropylcellulose) (HPC)", "result": "91 % of control"}, {"measurement": "T/C", "setting": "dose: 240.0 mg/kg/injection, schedule: Q01DX005 (ip), vehicle: Klucel (hydroxypropylcellulose) (HPC)", "result": "96 % of control"}]}, {"smiles": "CCC[CH2][Hg][O]C(C)=O", "values": [{"measurement": "T/C", "setting": "dose: 2.0 mg/kg/injection, schedule: Q01DX009 (ip), vehicle: other", "result": "95 % of control"}, {"measurement": "T/C", "setting": "dose: 3.0 mg/kg/injection, schedule: Q01DX009 (ip), vehicle: other", "result": "100 % of control"}, {"measurement": "T/C", "setting": "dose: 4.5 mg/kg/injection, schedule: Q01DX009 (ip), vehicle: other", "result": "113 % of control"}]}, {"smiles": "CO[C@@]12[C@@H]3N[C@@H]3CN1C1=C(C(=O)C(NCC3CCCO3)=C(C)C1=O)[C@@H]2COC(N)=O", "note": "(stereo partly specified)", "values": [{"measurement": "T/C", "setting": "dose: 1.56 mg/kg/injection, schedule: Q01DX005 (ip), vehicle: distilled water + Tween-80", "result": "155 % of control"}, {"measurement": "T/C", "setting": "dose: 3.12 mg/kg/injection, schedule: Q01DX005 (ip), vehicle: distilled water + Tween-80", "result": "194 % of control"}, {"measurement": "T/C", "setting": "dose: 6.25 mg/kg/injection, schedule: Q01DX005 (ip), vehicle: distilled water + Tween-80", "result": "198 % of control and 241 % of control"}, {"measurement": "T/C", "setting": "dose: 12.5 mg/kg/injection, schedule: Q01DX001 (ip), vehicle: distilled water + Tween-80", "result": "158 % of control"}, {"measurement": "T/C", "setting": "dose: 12.5 mg/kg/injection, schedule: Q01DX005 (ip), vehicle: distilled water + Tween-80", "result": "223 % of control and 225 % of control"}, {"measurement": "T/C", "setting": "dose: 25.0 mg/kg/injection, schedule: Q01DX001 (ip), vehicle: distilled water + Tween-80", "result": "165 % of control"}, {"measurement": "T/C", "setting": "dose: 25.0 mg/kg/injection, schedule: Q01DX005 (ip), vehicle: distilled water + Tween-80", "result": "100 % of control and 207 % of control"}, {"measurement": "T/C", "setting": "dose: 50.0 mg/kg/injection, schedule: Q01DX001 (ip), vehicle: distilled water + Tween-80", "result": "203 % of control"}]}, {"smiles": "O=S(=O)(Nc1nccs1)c1ccc(Nc2c3ccccc3nc3ncccc23)cc1", "values": [{"measurement": "T/C", "setting": "[1]", "result": "93 % of control"}, {"measurement": "T/C", "setting": "[2]", "result": "89 % of control"}]}]}
